Experimental data as given in patent publication US10865191B2, “Heterocyclic compounds useful as modulators of TNF alpha” (BRISTOL-MYERS SQUIBB COMPANY, priority 2015, dated 2020).
Read-outs that look alike come from different tables or passages of the source.

Molecular target: TNFα (Homo sapiens, UniProt P01375)
Assay: TNF induced HEK-Blue assay (NF-kB-driven secreted alkaline phosphatase reporter)
Type: cell-based
Details: TNFα 0.5 ng/mL, HEK-Blue-CD40L cells, 18 h
How it was run: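 HEK-Blue-CD40L cells (NF-kB-driven SEAP reporter), 20,000/well, added after 30 min pre-incubation of compound (0.004–25 μM final) with TNFα 0.5 ng/mL final at 37 °C; 18 h incubation. SEAP read with QUANTI-Blue at 620 nm; IC50 from 4-parameter logistic fit, normalized to unstimulated and stimulated DMSO controls.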

[1] = TNF induced HEK-Blue assay IC50 value
[2] = read-out: TNF induced HEK-Blue assay IC50 value

Chain of TNFα (P01375 77-233 limits assumed): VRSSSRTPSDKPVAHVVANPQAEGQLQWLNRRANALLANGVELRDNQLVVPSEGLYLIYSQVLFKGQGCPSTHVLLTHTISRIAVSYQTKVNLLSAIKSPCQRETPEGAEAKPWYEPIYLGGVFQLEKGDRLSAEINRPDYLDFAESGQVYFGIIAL

Row | IC50 [1] | IC50 [2] | SMILES
1 | < 1000 nM |  | CC(Nc1c(Cl)cnc2ccc(-c3cnc(C(C)(C)O)nc3)cc12)c1ccccc1C(F)(F)F (racemic) [Example 151, 2-(5-(3-chloro-4-((1-(2-(trifluoromethyl)phenyl)ethyl)amino)quinolin-6-yl)pyrimidin-2-yl)propan-2-ol]
2 |  | 1000 to 10000 nM | C[C@@H](Nc1c(Cl)cnc2cc(F)c(-c3cnc(N4CCC(C(=O)O)C4)nc3)cc12)c1ccccc1F (mixture of isomers) [Example 282, 1-(5-(3-chloro-7-fluoro-4-(((R)-1-(2-fluorophenyl)ethyl)amino)quinolin-6-yl)pyrimidin-2-yl)pyrrolidine-3-carboxylic acid]
3 |  | 1000 to 10000 nM | COC(=O)CCS(=O)(=O)c1ccc(F)c([C@@H](C)Nc2c(Cl)cnc3ccc(-c4cnc(C(C)(C)O)nc4)cc23)c1 [Example 427, Methyl (R)-3-((3-(1-((3-chloro-6-(2-(2-hydroxypropan-2-yl)pyrimidin-5-yl)quinolin-4-yl)amino)ethyl)-4-fluorophenyl)sulfonyl)propanoate]
4 |  | 10000 to 25000 nM | C[C@@H](Nc1ccnc2ccc(Br)cc12)c1cc(-c2cncnc2)ccc1F [Example 546, (R)-6-bromo-N-(1-(2-fluoro-5-(pyrimidin-5-yl)phenyl)ethyl)quinolin-4-amine]
5 |  | < 1000 nM | C[C@@H](Nc1c(Cl)cnc2ccccc12)c1cc(-c2cnc3[nH]ccc3c2)ccc1F [Example 537, (R)-3-chloro-N-(1-(2-fluoro-5-(1H-pyrrolo[2,3-b]pyridin-5-yl)phenyl)ethyl)quinolin-4-amine]
6 |  | 10000 to 25000 nM | CCCC(C)C(N)c1c(Cl)c(C)nc2ccc(-c3cnc(C(C)(C)O)nc3)cc12 (single isomer, unassigned) [Example 358, 2-(5-(4-(1-amino-2-methylpentyl)-3-chloro-2-methylquinolin-6-yl)pyrimidin-2-yl)propan-2-ol]
7 |  | < 1000 nM | C[C@@H](Nc1c(Cl)cnc2ccc(-c3ccncc3)cc12)c1cc(-c2cncnc2)ccc1F [Example 540, (R)-3-chloro-N-(1-(2-fluoro-5-(pyrimidin-5-yl)phenyl)ethyl)-6-(pyridin-4-yl)quinolin-4-amine]
8 |  | 1000 to 10000 nM | Cc1nc2ccccc2c(N[C@H](C)c2cc(Br)ccc2F)c1Cl [Example 538, (R)—N-(1-(5-bromo-2-fluorophenyl)ethyl)-3-chloro-2-methylquinolin-4-amine]
9 |  | < 1000 nM | C[C@@H](Nc1c(Cl)cnc2ccc(-c3cnc(N4CCN(C5CCNC5=O)CC4)nc3)cc12)c1ccccc1F (mixture of isomers) [Example 112, 3-(4-(5-(3-chloro-4-(((R)-1-(2-fluorophenyl)ethyl)amino)quinolin-6-yl)pyrimidin-2-yl)piperazin-1-yl)pyrrolidin-2-one]
10 | < 1000 nM |  | CC(Nc1c(Cl)cnc2c(F)cc(-c3cnc(C(C)(C)O)nc3)cc12)c1ccccc1F (racemic) [Example 247, 2-(5-(3-chloro-8-fluoro-4-((1-(2-fluorophenyl)ethyl)amino)quinolin-6-yl)pyrimidin-2-yl)propan-2-ol]
11 |  | < 1000 nM | CNc1ccncc1-c1ccc(F)c([C@@H](C)Nc2c(Cl)cnc3ccccc23)c1 [Example 523, (R)-3-chloro-N-(1-(2-fluoro-5-(4-(methylamino)pyridin-3-yl)phenyl)ethyl)quinolin-4-amine]
12 |  | < 1000 nM | Cc1nc2cc(F)c(-c3cnc(N4CCNC(=O)C4)nc3)cc2c(N[C@H](C)c2cc(C#N)ccc2F)c1Cl [Example 561, (R)-3-(1-((3-chloro-7-fluoro-2-methyl-6-(2-(3-oxopiperazin-1-yl)pyrimidin-5-yl)quinolin-4-yl)amino)ethyl)-4-fluorobenzonitrile]
13 |  | 1000 to 10000 nM | CC(C)(O)c1ncc(-c2nc3c(N[C@H](c4cc(C(=O)O)ccc4F)C(F)F)c(Cl)cnc3cc2F)cn1 [Example 485, (R)-3-(1-((3-chloro-7-fluoro-6-(2-(2-hydroxypropan-2-yl)pyrimidin-5-yl)-1,5-naphthyridin-4-yl)amino)-2,2-difluoroethyl)-4-fluorobenzoic acid]
14 |  | 1000 to 10000 nM | Cc1ccc(C)c(Nc2c(Cl)c(COc3cccnc3)nc3ccc(-c4ccc(C#N)nc4)cc23)c1 [Example 41, 5-(3-chloro-4-((2,5-dimethylphenyl)amino)-2-((pyridin-3-yloxy)methyl)quinolin-6-yl)picolinonitrile]
15 | < 1000 nM |  | Cc1nc2cc(F)c(-c3cnc(C(C)(C)O)nc3)nc2c(N[C@H](C)c2cc(C#N)ccc2F)c1Cl [Example 586, (R)-3-(1-((3-chloro-7-fluoro-6-(2-(2-hydroxypropan-2-yl)pyrimidin-5-yl)-2-methyl-1,5-naphthyridin-4-yl)amino)ethyl)-4-fluorobenzonitrile]
16 |  | < 1000 nM | Cc1nc2ccccc2c(N[C@H](C)c2cc(-c3cn[nH]c3)ccc2F)c1Cl [Example 533, (R)-3-chloro-N-(1-(2-fluoro-5-(1H-pyrazol-4-yl)phenyl)ethyl)-2-methylquinolin-4-amine]

Second part, the molecule before the results:

Row | SMILES | IC50 [1] | IC50 [2]
17 | CC(Nc1c(Cl)cnc2ccc(-c3ccc(C(C)(C)O)cc3)cc12)c1ncccn1 (racemic) [Example 177, 2-(4-(3-chloro-4-((1-(pyrimidin-2-yl)ethyl)amino)quinolin-6-yl)phenyl)propan-2-ol] |  | < 1000 nM
18 | O=C(O)CN1CCN(c2ccc(-c3ccc4ncc(Cl)c(N[C@@H](c5ccccc5F)C(F)F)c4c3)cn2)CC1 [Example 15, (S)-2-(4-(5-(3-chloro-4-((2,2-difluoro-1-(2-fluorophenyl)ethyl)amino)quinolin-6-yl)pyridin-2-yl)piperazin-1-yl)acetic acid] |  | < 1000 nM
19 | Cc1nc2cc(F)c(-c3cnc(C(C)(C)O)nc3)nc2c(N[C@H](C)c2cccc(C#N)c2)c1Cl [Example 589, (R)-3-(1-((3-chloro-7-fluoro-6-(2-(2-hydroxypropan-2-yl)pyrimidin-5-yl)-2-methyl-1,5-naphthyridin-4-yl)amino)ethyl)benzonitrile] |  | < 1000 nM
20 | C[C@@H](Nc1c(Cl)cnc2ccc(-c3cnc(N4CCN(CC(=O)O)CC4)nc3)cc12)c1ccccc1F [Example 285, (R)-2-(4-(5-(3-chloro-4-((1-(2-fluorophenyl)ethyl)amino)quinolin-6-yl)pyrimidin-2-yl)piperazin-1-yl)acetic acid] | < 1000 nM | 
21 | CC(Nc1c(Cl)cnc2ccc(-c3ccc(C(C)(C)O)cc3)cc12)c1ccncn1 (racemic) [Example 173, 2-(4-(3-chloro-4-((1-(pyrimidin-4-yl)ethyl)amino)quinolin-6-yl)phenyl)propan-2-ol] |  | 1000 to 10000 nM
22 | CC(O)C(=O)N1CCN(c2ncc(-c3cc4c(NC(C)c5ccccc5F)c(Cl)cnc4cc3F)cn2)CC1 (single isomer, unassigned) [Example 603, 1-(4-(5-(3-chloro-7-fluoro-4-((1-(2-fluorophenyl)ethyl)amino)quinolin-6-yl)pyrimidin-2-yl)piperazin-1-yl)-2-hydroxypropan-1-one] |  | < 1000 nM
23 | Cc1ccccc1-c1ccc(F)c([C@@H](C)Nc2c(Cl)c(C)nc3ccc(-c4cnc(C(C)(C)O)nc4)cc23)c1 [Example 332, (R)-2-(5-(3-chloro-4-((1-(4-fluoro-2′-methyl-[1,1′-biphenyl]-3-yl)ethyl)amino)-2-methylquinolin-6-yl)pyrimidin-2-yl)propan-2-ol] |  | < 1000 nM
24 | Cc1nc2ccccc2c(N[C@H](C)c2cc(-c3cncnc3)ccc2F)c1Cl [Example 530, (R)-3-chloro-N-(1-(2-fluoro-5-(pyrimidin-5-yl)phenyl)ethyl)-2-methylquinolin-4-amine] |  | < 1000 nM
25 | CCOc1ncc(-c2ccc3ncc(Cl)c(N[C@H](C)c4ccccc4F)c3c2)cn1 [Example 222, (R)-3-chloro-6-(2-ethoxypyrimidin-5-yl)-N-(1-(2-fluorophenyl)ethyl)quinolin-4-amine] | < 1000 nM | 
26 | CN(Cc1c(Cl)cnc2ccc(-c3cnc(C(C)(C)O)nc3)cc12)c1ccccc1F [Example 67, 2-(5-(3-chloro-4-(((2-fluorophenyl)(methyl)amino)methyl)quinolin-6-yl)pyrimidin-2-yl)propan-2-ol] |  | 1000 to 10000 nM
27 | O=C1CN(c2ncc(-c3ccc4ncc(Cl)c(N[C@@H](c5ccccc5F)C(F)F)c4c3)cn2)CCN1 [Example 79, (S)-4-(5-(3-chloro-4-((2,2-difluoro-1-(2-fluorophenyl)ethyl)amino)quinolin-6-yl)pyrimidin-2-yl)piperazin-2-one] |  | < 1000 nM
28 | CC(C)(O)c1ncc(-c2cc3c(N[C@H]4C[C@@H]4c4ccccc4)c(Cl)cnc3cc2F)cn1 (mixture of isomers) [Example 271, 2-(5-(3-chloro-7-fluoro-4-(((1S,2R)-2-phenylcyclopropyl)amino)quinolin-6-yl)pyrimidin-2-yl)propan-2-ol] |  | 1000 to 10000 nM
29 | C[C@@H](Nc1c(Cl)cnc2ccc(-c3ccc(C(=O)NCCCCN)nc3)cc12)c1ccccc1F [Example 101, (R)—N-(4-aminobutyl)-5-(3-chloro-4-((1-(2-fluorophenyl)ethyl)amino)quinolin-6-yl)picolinamide] |  | 10000 to 25000 nM
30 | CC(Nc1c(Cl)cnc2cc(F)c(-c3ccc(C(O)CN4CCOCC4)cc3)cc12)c1ccccc1F (centres unmarked) [Example 288, 1-(4-(3-chloro-7-fluoro-4-((1-(2-fluorophenyl)ethyl)amino)quinolin-6-yl)phenyl)-2-morpholinoethan-1-ol] |  | 1000 to 10000 nM
31 | C=Cc1ccc(F)c([C@@H](C)Nc2c(Cl)c(C)nc3ccc(-c4cnc(C(C)(C)O)nc4)cc23)c1 [Example 330, (R)-2-(5-(3-chloro-4-((1-(2-fluoro-5-vinylphenyl)ethyl)amino)-2-methylquinolin-6-yl)pyrimidin-2-yl)propan-2-ol] |  | < 1000 nM
32 | CC(Nc1c(Cl)cnc2cc(F)c(-c3ccc(C4(CO)CC4)cc3)cc12)c1ccccc1F (centres unmarked) [Example 265, (1-(4-(3-chloro-7-fluoro-4-((1-(2-fluorophenyl)ethyl)amino)quinolin-6-yl)phenyl)cyclopropyl) methanol] |  | < 1000 nM
